Data as given in US9663508B2, “Biaryl acyl-sulfonamide compounds as sodium channel inhibitors” (AMGEN INC., priority 2013, dated 2017).
Where two headings read alike, the source gives them in different places.

Key:
human Nav1.7 = human Nav1.7 (Homo sapiens (Human), UniProt Q15858); test: Nav 1.7 in vitro PatchXpress (PX) assay; type: cell-based
human Nav 1.5 = human Nav 1.5 (Homo sapiens (Human), UniProt Q14524); test: Nav 1.5 IonWorks Quattro (IWQ) in vitro assay; type: cell-based
Experimental: Nav 1.7 or Nav 1.5 Ion Works Quattro (IWQ) In Vitro Assay
HEK 293 Cells stably transfected with either human Nay 1.7 or human Nay 1.5 were recorded in population patch-clamp mode with the IonWorks® Quattro automated electrophysiology system in accordance with the manufacturer's specifications (Molecular Devices, LLC, Sunnyvale, Calif.). Sodium channel currents were measured in response to a train of depolarizations that induced successively greater inactivation.
Cells were held at −110 mV for three seconds (Nav 1.7) or half a second (Nav 1.5) from a holding voltage of −15 mV, then put through a series of 26 pulses of 150 msec duration to −20 mV at a frequency of 5 Hz. Cells were then left unclamped for a period of 3 to 8 minutes while a single concentration of test compound was added. Cells were then reclamped and put through the same voltage protocol. Current at the end of the 26th pulse to −20 mV was subtracted from the peak current evoked by the 26th pulse to −20 mV to correct for leak current. Percent block was calculated for each concentration in duplicate, and IC50 curves were fitted to percent block as a function of concentration.

[1] = in-vitro Nav 1.5 IWQ data, read-out: NAV 1.5 IWQ (IC50)

Sequence of human Nav 1.5 (Q14524 whole entry): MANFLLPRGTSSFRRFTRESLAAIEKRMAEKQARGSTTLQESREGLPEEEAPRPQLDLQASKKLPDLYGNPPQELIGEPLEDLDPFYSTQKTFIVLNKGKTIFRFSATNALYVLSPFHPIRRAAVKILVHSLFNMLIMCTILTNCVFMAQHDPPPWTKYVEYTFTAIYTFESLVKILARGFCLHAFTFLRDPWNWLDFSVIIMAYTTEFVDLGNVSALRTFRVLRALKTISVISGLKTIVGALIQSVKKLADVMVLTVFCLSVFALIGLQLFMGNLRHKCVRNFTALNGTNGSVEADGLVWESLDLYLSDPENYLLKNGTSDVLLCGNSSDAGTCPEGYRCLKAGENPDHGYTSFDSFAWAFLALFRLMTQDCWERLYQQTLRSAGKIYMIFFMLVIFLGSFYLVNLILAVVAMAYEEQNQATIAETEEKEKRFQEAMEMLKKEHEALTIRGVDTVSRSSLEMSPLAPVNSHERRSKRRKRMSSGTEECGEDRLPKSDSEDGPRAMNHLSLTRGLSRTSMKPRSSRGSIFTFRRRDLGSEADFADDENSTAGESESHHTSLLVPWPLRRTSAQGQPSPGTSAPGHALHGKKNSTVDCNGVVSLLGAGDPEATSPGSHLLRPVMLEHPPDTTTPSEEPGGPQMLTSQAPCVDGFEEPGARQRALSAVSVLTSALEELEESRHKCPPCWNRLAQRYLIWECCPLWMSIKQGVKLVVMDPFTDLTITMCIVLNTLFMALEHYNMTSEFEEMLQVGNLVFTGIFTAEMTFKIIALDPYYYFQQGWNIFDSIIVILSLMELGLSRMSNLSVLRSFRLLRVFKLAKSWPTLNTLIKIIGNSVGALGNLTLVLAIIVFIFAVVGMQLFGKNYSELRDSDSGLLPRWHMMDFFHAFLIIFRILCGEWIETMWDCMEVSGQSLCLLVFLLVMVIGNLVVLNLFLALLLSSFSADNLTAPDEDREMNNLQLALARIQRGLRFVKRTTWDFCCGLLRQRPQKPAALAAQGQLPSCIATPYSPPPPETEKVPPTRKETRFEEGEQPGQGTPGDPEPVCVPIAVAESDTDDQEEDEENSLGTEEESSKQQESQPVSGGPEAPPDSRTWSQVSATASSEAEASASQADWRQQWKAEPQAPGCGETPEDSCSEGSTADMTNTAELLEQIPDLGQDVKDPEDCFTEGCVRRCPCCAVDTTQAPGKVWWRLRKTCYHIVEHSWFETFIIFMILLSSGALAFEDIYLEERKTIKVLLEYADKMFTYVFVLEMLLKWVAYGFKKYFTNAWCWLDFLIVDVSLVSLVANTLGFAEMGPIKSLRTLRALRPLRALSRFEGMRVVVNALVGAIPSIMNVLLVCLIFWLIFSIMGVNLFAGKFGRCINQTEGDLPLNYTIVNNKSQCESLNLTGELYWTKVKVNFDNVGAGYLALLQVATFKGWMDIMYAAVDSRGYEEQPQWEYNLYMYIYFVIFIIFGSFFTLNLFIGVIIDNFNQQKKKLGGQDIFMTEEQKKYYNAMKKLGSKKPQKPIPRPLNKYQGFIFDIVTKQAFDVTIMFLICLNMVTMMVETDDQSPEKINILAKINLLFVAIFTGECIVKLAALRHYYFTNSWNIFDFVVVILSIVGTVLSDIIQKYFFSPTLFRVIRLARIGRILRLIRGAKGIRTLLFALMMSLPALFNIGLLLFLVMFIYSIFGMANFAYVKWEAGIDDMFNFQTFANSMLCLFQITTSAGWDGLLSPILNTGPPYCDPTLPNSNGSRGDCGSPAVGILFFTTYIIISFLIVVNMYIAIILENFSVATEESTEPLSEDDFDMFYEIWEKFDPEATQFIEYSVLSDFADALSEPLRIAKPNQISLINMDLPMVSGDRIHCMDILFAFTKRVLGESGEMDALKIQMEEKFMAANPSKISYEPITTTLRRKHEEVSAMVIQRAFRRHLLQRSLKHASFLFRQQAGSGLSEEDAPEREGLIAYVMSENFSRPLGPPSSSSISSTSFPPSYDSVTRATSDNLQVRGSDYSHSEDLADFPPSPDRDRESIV
Sequence of human Nav1.7 (Q15858 whole entry): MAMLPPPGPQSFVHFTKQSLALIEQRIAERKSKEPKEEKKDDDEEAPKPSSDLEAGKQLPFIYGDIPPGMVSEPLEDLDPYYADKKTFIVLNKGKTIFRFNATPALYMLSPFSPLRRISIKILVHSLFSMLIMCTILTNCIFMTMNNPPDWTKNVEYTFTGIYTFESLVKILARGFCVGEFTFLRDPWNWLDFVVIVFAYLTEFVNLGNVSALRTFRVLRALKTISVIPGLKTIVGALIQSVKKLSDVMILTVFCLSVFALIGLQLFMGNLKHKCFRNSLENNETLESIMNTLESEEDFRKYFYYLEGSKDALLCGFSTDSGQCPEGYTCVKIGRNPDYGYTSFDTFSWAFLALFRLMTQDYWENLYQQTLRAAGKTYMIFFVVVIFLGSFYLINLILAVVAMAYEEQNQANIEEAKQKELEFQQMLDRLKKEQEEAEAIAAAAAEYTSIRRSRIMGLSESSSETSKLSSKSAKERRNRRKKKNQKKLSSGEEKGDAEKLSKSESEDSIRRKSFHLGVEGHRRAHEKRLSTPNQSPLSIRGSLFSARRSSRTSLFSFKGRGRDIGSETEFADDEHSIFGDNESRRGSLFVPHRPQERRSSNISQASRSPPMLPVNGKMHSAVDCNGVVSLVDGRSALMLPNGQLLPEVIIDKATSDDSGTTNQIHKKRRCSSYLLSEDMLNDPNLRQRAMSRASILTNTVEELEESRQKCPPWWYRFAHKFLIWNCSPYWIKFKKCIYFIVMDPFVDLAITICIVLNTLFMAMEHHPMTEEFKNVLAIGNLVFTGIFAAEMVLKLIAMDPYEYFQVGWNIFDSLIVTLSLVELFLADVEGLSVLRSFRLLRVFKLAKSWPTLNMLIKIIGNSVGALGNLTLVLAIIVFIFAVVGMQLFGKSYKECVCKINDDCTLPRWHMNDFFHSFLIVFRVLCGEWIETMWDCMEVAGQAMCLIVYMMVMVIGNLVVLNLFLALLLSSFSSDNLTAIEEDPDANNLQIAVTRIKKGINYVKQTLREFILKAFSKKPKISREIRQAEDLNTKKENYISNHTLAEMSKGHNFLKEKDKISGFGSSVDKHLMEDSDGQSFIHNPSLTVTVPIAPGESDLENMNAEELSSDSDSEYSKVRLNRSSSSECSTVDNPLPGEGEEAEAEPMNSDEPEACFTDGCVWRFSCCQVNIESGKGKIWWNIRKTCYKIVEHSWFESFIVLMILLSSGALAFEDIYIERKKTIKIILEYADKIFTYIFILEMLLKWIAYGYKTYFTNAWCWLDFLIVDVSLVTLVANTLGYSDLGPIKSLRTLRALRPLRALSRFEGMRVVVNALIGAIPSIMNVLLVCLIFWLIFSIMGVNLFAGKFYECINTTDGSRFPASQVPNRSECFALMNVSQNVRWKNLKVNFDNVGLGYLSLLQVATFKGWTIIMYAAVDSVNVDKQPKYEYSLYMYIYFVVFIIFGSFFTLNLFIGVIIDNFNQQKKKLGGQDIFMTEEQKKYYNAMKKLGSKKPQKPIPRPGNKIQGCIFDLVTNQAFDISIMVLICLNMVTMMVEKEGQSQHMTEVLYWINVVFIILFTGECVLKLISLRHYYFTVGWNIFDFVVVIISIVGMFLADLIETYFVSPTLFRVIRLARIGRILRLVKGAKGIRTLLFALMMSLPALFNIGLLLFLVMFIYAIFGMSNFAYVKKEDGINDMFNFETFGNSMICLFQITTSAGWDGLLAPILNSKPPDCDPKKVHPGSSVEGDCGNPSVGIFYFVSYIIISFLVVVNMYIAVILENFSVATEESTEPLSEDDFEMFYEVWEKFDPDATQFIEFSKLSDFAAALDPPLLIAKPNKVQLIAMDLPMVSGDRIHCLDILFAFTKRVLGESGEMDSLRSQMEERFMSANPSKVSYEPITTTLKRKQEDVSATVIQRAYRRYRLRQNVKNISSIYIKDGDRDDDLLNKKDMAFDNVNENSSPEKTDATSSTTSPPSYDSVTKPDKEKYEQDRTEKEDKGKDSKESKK

SMILES	IC50 (human Nav1.7) [nM]	IC50 (human Nav1.7; in-vitro Nav 1.7 PX data) [nM]	IC50 (human Nav 1.5; read-out: NAV 1.5 IWQ IC50) [nM]	IC50 (human Nav 1.5; [1]) [nM]
CC[C@@H](Oc1ncc(-c2cc(F)c(C(=O)NS(C)(=O)=O)cc2C)cc1Cl)c1ccc(Cl)cc1 [Example 640, 4-(5-chloro-6-(((1R)-1-(4-chlorophenyl)propyl)oxy)-3-pyridinyl)-2-fluoro-5-methyl-N-(methylsulfonyl)benzamide, 4-(5-chloro-6-(((1S)-1-(4-chlorophenyl)propyl)oxy)-3-pyridinyl)-2-fluoro-5-methyl-N-(methylsulfonyl)benzamide]	90.8	–	> 3000	–
Cc1cc(C(=O)NS(C)(=O)=O)c(F)cc1-c1cnc(Oc2c(Cl)cccc2Cl)c(Cl)c1 [Example 627, 4-(5-chloro-6-(2,6-dichlorophenoxy)-3-pyridinyl)-2-fluoro-5-methyl-N-(methylsulfonyl)benzamide]	69.1	–	> 3000	–
Cc1cc(C(=O)NS(C)(=O)=O)c(F)cc1-c1cnc(OCCC(C)C)c(Cl)c1 [Example 637, 4-(5-chloro-6-(3-methylbutoxy)-3-pyridinyl)-2-fluoro-5-methyl-N-(methylsulfonyl)benzamide]	87.7	–	> 3000	–
CS(=O)(=O)NC(=O)c1cc(Cl)c(-c2cnc(Oc3cc(F)cc(F)c3Cl)c(Cl)c2)cc1F [Example 599, 5-chloro-4-(5-chloro-6-(2-chloro-3,5-difluorophenoxy)-3-pyridinyl)-2-fluoro-N-(methylsulfonyl)benzamide]	62.7	–	> 3000	–
COc1ccccc1C[C@@H](C)Oc1ncc(-c2cc(F)c(C(=O)NS(C)(=O)=O)cc2C)cc1Cl [Example 649, 4-(5-chloro-6-((1R)-2-(2-methoxyphenyl)-1-methylethoxy)-3-pyridinyl)-2-fluoro-5-methyl-N-(methylsulfonyl)benzamide, 4-(5-chloro-6-((1S)-2-(2-methoxyphenyl)-1-methylethoxy)-3-pyridinyl)-2-fluoro-5-methyl-N-(methylsulfonyl)benzamide]	92.9	–	> 3000	–
Cc1cc(C(=O)NS(C)(=O)=O)c(F)cc1-c1cnc(Oc2ccccc2-c2ccccc2)c(Cl)c1 [Example 612, 4-(6-(2-biphenylyloxy)-5-chloro-3-pyridinyl)-2-fluoro-5-methyl-N-(methylsulfonyl)benzamide]	88.3	–	> 3000	–
Cc1cc(Br)ccc1Oc1ncc(-c2cc(F)c(C(=O)NS(C)(=O)=O)cc2C)cc1Cl [Example 614, 4-(6-(4-bromo-2-methylphenoxy)-5-chloro-3-pyridinyl)-2-fluoro-5-methyl-N-(methylsulfonyl)benzamide]	68	–	> 3000	–
CC(C)[C@@H](Oc1ncc(-c2cc(F)c(C(=O)NS(C)(=O)=O)cc2Cl)cc1Cl)c1ccccc1 [Example 594, 5-chloro-4-(5-chloro-6-(((1R)-2-methyl-1-phenylpropyl)oxy)-3-pyridinyl)-2-fluoro-N-(methylsulfonyl)benzamide, 5-chloro-4-(5-chloro-6-(((1S)-2-methyl-1-phenylpropyl)oxy)-3-pyridinyl)-2-fluoro-N-(methylsulfonyl)benzamide]	48.8	–	> 3000	–
CS(=O)(=O)NC(=O)c1cc(Cl)c(-c2cnc(Oc3cc(F)cc(F)c3F)c(Cl)c2)cc1F [Example 589, 5-chloro-4-(5-chloro-6-(2,3,5-trifluorophenoxy)-3-pyridinyl)-2-fluoro-N-(methylsulfonyl)benzamide]	49.9	–	> 3000	–
Cc1cc(C(=O)NS(C)(=O)=O)c(F)cc1-c1cnc(Oc2cc(F)ccc2F)c(Cl)c1 [Example 605, 4-(5-chloro-6-(2,5-difluorophenoxy)-3-pyridinyl)-2-fluoro-5-methyl-N-(methylsulfonyl)benzamide]	45.5	–	> 3000	–
Cc1ccc(Cl)cc1Oc1ncc(-c2cc(F)c(C(=O)NS(C)(=O)=O)cc2C)cc1Cl [Example 616, 4-(5-chloro-6-(5-chloro-2-methylphenoxy)-3-pyridinyl)-2-fluoro-5-methyl-N-(methylsulfonyl)benzamide]	70.8	–	> 3000	–
Cc1ccc(Cl)cc1Oc1ncc(-c2cc(F)c(C(=O)NS(C)(=O)=O)cc2Cl)cc1Cl [Example 590, 5-chloro-4-(5-chloro-6-(5-chloro-2-methylphenoxy)-3-pyridinyl)-2-fluoro-N-(methylsulfonyl)benzamide]	68.1	–	> 3000	–

The next lines start with results.

IC50 (human Nav1.7) [nM]	IC50 (human Nav1.7; in-vitro Nav 1.7 PX data) [nM]	SMILES	IC50 (human Nav 1.5; read-out: NAV 1.5 IWQ IC50) [nM]	IC50 (human Nav 1.5; [1]) [nM]
78.2	–	COc1cc(C(=O)NS(C)(=O)=O)c(F)cc1-c1cnc(O[C@H]2C[C@H]3CC[C@@H]2C3)c(Cl)c1 [Example 703, 4-(6-((1R,2S,4S)-bicyclo[2.2.1]hept-2-yloxy)-5-chloro-3-pyridinyl)-2-fluoro-5-methoxy-N-(methylsulfonyl)benzamide]	> 3000	–
56	–	Cc1cc(C(=O)NS(C)(=O)=O)c(F)cc1-c1cnc(Oc2c(C)cc(Cl)cc2Cl)c(Cl)c1 [Example 628, 4-(5-chloro-6-(2,4-dichloro-6-methylphenoxy)-3-pyridinyl)-2-fluoro-5-methyl-N-(methylsulfonyl)benzamide]	2190	–
70.6	–	COc1cc(C(=O)NS(C)(=O)=O)c(F)cc1-c1cnc(Oc2ccc(F)c(F)c2F)c(Cl)c1 [Example 701, 4-(5-chloro-6-(2,3,4-trifluorophenoxy)-3-pyridinyl)-2-fluoro-5-methoxy-N-(methylsulfonyl)benzamide]	> 3000	–
–	34.9	COc1cc(C(=O)NS(C)(=O)=O)c(F)cc1-c1cnc(OCc2nc3ccccc3s2)c(Cl)c1 [Example 709, 4-(6-(1,3-benzothiazol-2-ylmethoxy)-5-chloro-3-pyridinyl)-2-fluoro-5-methoxy-N-(methylsulfonyl)benzamide]	–	> 3000
–	32.6	COc1cc(C(=O)NS(C)(=O)=O)c(F)cc1-c1cnc(OCc2nc3ccccc3s2)c(Cl)c1 [Example 708, 4-(6-(1,3-benzothiazol-2-ylmethoxy)-5-chloro-3-pyridinyl)-2-fluoro-5-methoxy-N-(methylsulfonyl)benzamide]	–	> 3000
97	–	Cc1cc(C(=O)NS(C)(=O)=O)c(F)cc1-c1cnc(Oc2cc(F)c(Cl)c(F)c2)c(Cl)c1 [Example 668, 4-(5-chloro-6-(4-chloro-3,5-difluorophenoxy)-3-pyridinyl)-2-fluoro-5-methyl-N-(methylsulfonyl)benzamide]	> 10000	–
79.2	–	Cc1cc(C(=O)NS(C)(=O)=O)c(F)cc1-c1cnc(Oc2ccc(C)c(F)c2F)c(Cl)c1 [Example 643, 4-(5-chloro-6-(2,3-difluoro-4-methylphenoxy)-3-pyridinyl)-2-fluoro-5-methyl-N-(methylsulfonyl)benzamide]	5440	–
–	96	CCS(=O)(=O)NC(=O)c1cc(C)c(-c2cnc(Oc3c(C)cc(Cl)cc3Cl)c(Cl)c2)cc1F [Example 800, 4-(5-chloro-6-(2,4-dichloro-6-methylphenoxy)-3-pyridinyl)-N-(ethylsulfonyl)-2-fluoro-5-methylbenzamide]	–	1250
97.3	–	CCOc1ccc(Oc2ncc(-c3cc(F)c(C(=O)NS(C)(=O)=O)cc3C)cc2Cl)cc1F [Example 645, 4-(5-chloro-6-(4-ethoxy-3-fluorophenoxy)-3-pyridinyl)-2-fluoro-5-methyl-N-(methylsulfonyl)benzamide]	> 3000	–
